Data taken from article PMC3832595, “Synthesis of a Pseudo-Disaccharide Library and Its Application to the Characterisation of the Heparanase Catalytic Site” (PLoS ONE, 2013).

Target: T1, human heparanase (Homo sapiens, UniProt Q9Y251)
T1 construct: purchased Apollo Scientific, Cheshire UK
T1 sequence (Q9Y251 158-543 limits assumed): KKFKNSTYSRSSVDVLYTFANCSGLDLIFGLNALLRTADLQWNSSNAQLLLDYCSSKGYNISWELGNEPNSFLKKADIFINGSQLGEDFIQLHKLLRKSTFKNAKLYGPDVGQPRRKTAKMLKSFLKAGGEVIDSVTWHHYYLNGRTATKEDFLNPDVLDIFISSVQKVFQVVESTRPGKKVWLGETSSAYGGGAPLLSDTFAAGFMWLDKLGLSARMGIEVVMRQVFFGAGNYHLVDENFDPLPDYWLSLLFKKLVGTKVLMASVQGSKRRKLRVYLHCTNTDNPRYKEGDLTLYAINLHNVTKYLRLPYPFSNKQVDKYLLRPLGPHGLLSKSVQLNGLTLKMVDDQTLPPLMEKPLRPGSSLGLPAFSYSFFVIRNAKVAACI
T1 sequence (Q9Y251 36-109 limits assumed): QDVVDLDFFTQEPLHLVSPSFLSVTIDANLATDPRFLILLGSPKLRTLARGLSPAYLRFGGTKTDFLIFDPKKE
Assay: Heparanase inhibition assay (biotinylated heparan sulfate degradation, CBD-FGF binding, avidin-POD detection; modified Genway kit)
Assay type: biochemical
Conditions: recombinant human heparanase; for IC50: mean of three readings ± standard error, read-out: IC50 (n=3) against human heparanase

Structure (SMILES) | Inhibition of heparanase (result in words) | IC50 [µM]
NC1CC(CO)C(OC2OC(CO)C(O)C(O)C2O)CC1O (stereo not shown) [8c] | no significant activity | > 10000
CCCCOC1CC(O)C(N)CC1CO (stereo not shown) [compound 11] | no significant inhibition | > 10000
NC1CC(CO)C(OC2OC(CO)C(O)C(O)C2O)CC1O (stereo not shown) [8a] |  | 1200 ± 300
NC1CC(CO)C(OC2OC(CO)C(O)C(O)C2O)CC1O (stereo not shown) [8d] |  | 800 ± 200
NC1CC(CO)C(OC2OC(CO)C(O)C(O)C2O)CC1O (stereo not shown) [8b] |  | 800 ± 200
